From PubChem BioAssay (NCI) come the findings set out here.

Several values for one entry are separate records, joined by “and”; a condition that tells them apart may be missing. Equal entries are not always repeated.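 How tested: cells in 96-well plates exposed to compound for 48 hours at five concentrations. At the GI50, growth is halved. Definition used: TGI = concentration required for complete inhibition of growth.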

Some test systems named below: HCT-15 colon; U251 CNS; A549 NSCLC; SNB-75 CNS; SK-MEL-5 melanoma; OVCAR-5 ovarian; NCI-H226 lung; OVCAR-4 ovarian; K-562 leukemia; SNB-19 CNS.
Holding throughout (assay): NCI anticancer screen, dose series, 48 h

Turning to `O=C(NC1C(=O)NNC1c1ccccc1Cl)c1ccccc1` (stereo not drawn), the TGI with HCT-15 colon, with U251 CNS, in the test on A549 NSCLC, in the test on SNB-75 CNS, in the test on SK-MEL-5 melanoma and in the test on OVCAR-5 ovarian was above 100 µM each time. Further, the TGI in the test with NCI-H226 lung, with OVCAR-4 ovarian, with K-562 leukemia and with SNB-19 CNS was above 100 µM each time.
As for `CC/C(=N/N=C(N)N)c1ccc(NC(=O)Nc2ccc(/C(CC)=N/N=C(N)N)cc2)cc1`, the GI50 with HCT-15 colon is 11.9 µM; with U251 CNS, 2.64 µM; in the test with A549 NSCLC it was 5.1 µM; with SNB-75 CNS it was 13.6 µM; in the test with SK-MEL-5 melanoma it was 2.07 µM; with OVCAR-5 ovarian, 18.8 µM. Besides, the GI50 with NCI-H226 lung is 10.8 µM; with OVCAR-4 ovarian it was 6.08 µM; in the test with K-562 leukemia it was 1.06 µM; in the test on SNB-19 CNS, 8.55 µM. The TGI is 33.2 µM in the test with HCT-15 colon; 12.2 µM in the test with U251 CNS; 22.4 µM in the test with A549 NSCLC; 42.1 µM in the test with SNB-75 CNS; above 100 µM in the test with SK-MEL-5 melanoma; 44.6 µM with OVCAR-5 ovarian. For the same molecule, the TGI in the test with NCI-H226 lung was 39.8 µM; in the test with OVCAR-4 ovarian it was 44.8 µM; in the test on K-562 leukemia, 7.25 µM; in the test with SNB-19 CNS, 85 µM.
Regarding `O=C(Nc1ccccc1)Nc1ccc(Cl)c(Cl)c1`, the GI50 is 3.22 µM in the test on HCT-15 colon; 3.23 µM in the test on U251 CNS; 3.04 µM with A549 NSCLC; 5.35 µM in the test on SNB-75 CNS; 3.61 µM in the test on SK-MEL-5 melanoma; 8.85 µM in the test with OVCAR-5 ovarian. The GI50 with NCI-H226 lung was 3.06 µM; in the test with OVCAR-4 ovarian it was 3.34 µM; in the test on K-562 leukemia it was 3.79 µM; in the test with SNB-19 CNS it was 3.1 µM. Further, the TGI with HCT-15 colon is above 100 µM; with U251 CNS, 20.8 µM; with A549 NSCLC it was above 100 µM; in the test with SNB-75 CNS, above 100 µM; with SK-MEL-5 melanoma, 14.4 µM; in the test with OVCAR-5 ovarian it was above 100 µM. Moreover, the TGI is above 100 µM with NCI-H226 lung, 71.5 µM in the test on OVCAR-4 ovarian, above 100 µM in the test on K-562 leukemia and above 100 µM in the test with SNB-19 CNS.
Take `O=C1c2ccccc2C(=O)c2c1ccc1c2N=C(c2ccc(Br)cc2)CC(c2cccc3ccccc23)N1` (stereo not drawn): the TGI in the test with HCT-15 colon, in the test with U251 CNS, in the test with A549 NSCLC, in the test with SNB-75 CNS, in the test on SK-MEL-5 melanoma and in the test with OVCAR-5 ovarian was above 100 µM in each case. The TGI with NCI-H226 lung, in the test on OVCAR-4 ovarian, with K-562 leukemia and with SNB-19 CNS was above 100 µM in each case.
In the case of `Cn1cnc([N+](=O)[O-])c1Sc1nc2ccc([N+](=O)[O-])cc2[nH]1`, the TGI in the test with HCT-15 colon was 38.8 µM; in the test with U251 CNS, above 100 µM; with A549 NSCLC, above 100 µM; with SNB-75 CNS it was 81.8 µM; in the test on SK-MEL-5 melanoma it was 30.6 µM; with OVCAR-5 ovarian it was above 100 µM. Moreover, the TGI in the test with NCI-H226 lung was above 100 µM; in the test on OVCAR-4 ovarian, above 100 µM; in the test on K-562 leukemia it was 69.2 µM; in the test with SNB-19 CNS, above 100 µM.
On to `O=C1NC(=N[C@H](CO)c2ccccc2)S/C1=C\c1ccc2ncccc2c1`, for which the GI50 is 5.2 µM in the test with HCT-15 colon; 1.96 µM in the test on U251 CNS; 4.62 µM in the test with A549 NSCLC; 1.46 µM in the test on SNB-75 CNS; 4.89 µM in the test on SK-MEL-5 melanoma; 4.96 µM in the test on OVCAR-5 ovarian. For the same molecule, the GI50 in the test on NCI-H226 lung was 4.8 µM; in the test with OVCAR-4 ovarian, 2.67 µM; with K-562 leukemia, 4 µM; in the test on SNB-19 CNS it was 3.73 µM. The TGI is above 25 µM with HCT-15 colon; above 19.8 µM in the test on U251 CNS; 18.8 µM in the test with A549 NSCLC; 17.7 µM in the test on SNB-75 CNS; 10.6 µM with SK-MEL-5 melanoma; 20.1 µM with OVCAR-5 ovarian. Moreover, the TGI was 16.5 µM in the test with NCI-H226 lung, above 25 µM in the test on OVCAR-4 ovarian, above 25 µM in the test on K-562 leukemia and above 25 µM in the test with SNB-19 CNS.
For `COC1=CC2CCN3Cc4cc5c(cc4C(C1O)C23)OCC5` (stereo not drawn), the GI50 with HCT-15 colon is 1.31 µM; in the test with U251 CNS, 1.53 µM; with A549 NSCLC, 1.26 µM; in the test on SNB-75 CNS, 1.24 µM; in the test on SK-MEL-5 melanoma, 2.18 µM; in the test with OVCAR-5 ovarian, 2.48 µM. For the same molecule, the GI50 in the test with NCI-H226 lung was 1.72 µM; with OVCAR-4 ovarian it was 1.33 µM; in the test on K-562 leukemia it was 3.51 µM; in the test on SNB-19 CNS, 0.992 µM. Further, the TGI was 8.49 µM with HCT-15 colon; 11.4 µM in the test with U251 CNS; 8.19 µM in the test with A549 NSCLC; 6.24 µM with SNB-75 CNS; 8.89 µM in the test on SK-MEL-5 melanoma; 22.8 µM in the test on OVCAR-5 ovarian. The TGI with NCI-H226 lung is 7.6 µM; with OVCAR-4 ovarian, 22.8 µM; with K-562 leukemia it was above 100 µM; in the test with SNB-19 CNS, above 24.5 µM.
For `CC[C@@]1(O)C(=O)NCc2c1cc1n(c2=O)Cc2cc3c(NC(C)=O)cccc3nc2-1`, the GI50 in the test with HCT-15 colon, with U251 CNS, in the test on A549 NSCLC, in the test with SNB-75 CNS, in the test with SK-MEL-5 melanoma and in the test on OVCAR-5 ovarian was above 100 µM throughout. Further, the GI50 with NCI-H226 lung, in the test on OVCAR-4 ovarian, in the test on K-562 leukemia and in the test on SNB-19 CNS was above 100 µM each time. The TGI in the test on HCT-15 colon, with U251 CNS, in the test on A549 NSCLC, in the test on SNB-75 CNS, in the test on SK-MEL-5 melanoma and in the test on OVCAR-5 ovarian was above 100 µM each time. For the same molecule, the TGI in the test on NCI-H226 lung, in the test on OVCAR-4 ovarian, in the test on K-562 leukemia and with SNB-19 CNS was above 100 µM in each case.
Take `COC(=O)c1ccc2c(C(=Nc3ccc(N(C)C(=O)CN4CCN(C)CC4)cc3)c3ccccc3)c(O)[nH]c2c1`: the GI50 in the test with HCT-15 colon is 2.22 µM and 5.45 µM; in the test on U251 CNS, 1.44 µM and 1.77 µM; in the test with A549 NSCLC it was 2.74 µM and 2.79 µM; in the test with SNB-75 CNS, 0.385 µM and 0.32 µM; with SK-MEL-5 melanoma it was 3.94 µM and 2.32 µM; in the test with OVCAR-5 ovarian, 1.73 µM and 6.75 µM. The GI50 in the test with NCI-H226 lung was 2.35 µM and 1.82 µM; with OVCAR-4 ovarian it was 5.17 µM and 13.1 µM; in the test with K-562 leukemia it was 0.224 µM and 0.466 µM; in the test on SNB-19 CNS it was 2.6 µM and 3.55 µM. In addition, the TGI is above 100 µM with HCT-15 colon; above 100 µM with A549 NSCLC; 9.71 µM and 7.71 µM in the test on SNB-75 CNS; 9.86 µM and 6.51 µM in the test with SK-MEL-5 melanoma; 24.5 µM and 59.9 µM with NCI-H226 lung; 59.6 µM and > 70.8 µM with OVCAR-4 ovarian. In addition, the TGI in the test on K-562 leukemia and in the test on SNB-19 CNS was above 100 µM each time.
